In data set [1] the target is T1, angiotensin II contracture of rabbit aortic strip (Oryctolagus cuniculus, UniProt P34976).
T1 construct: A spiral preparation of the aorta having a width of 1.5 to 2 mm and a length of 15 to 20 mm was prepared therefrom; from tissue; host or cells: thoracic aorta of male New Zealand white rabbit, spiral strip
T1 sequence (P34976 1-359): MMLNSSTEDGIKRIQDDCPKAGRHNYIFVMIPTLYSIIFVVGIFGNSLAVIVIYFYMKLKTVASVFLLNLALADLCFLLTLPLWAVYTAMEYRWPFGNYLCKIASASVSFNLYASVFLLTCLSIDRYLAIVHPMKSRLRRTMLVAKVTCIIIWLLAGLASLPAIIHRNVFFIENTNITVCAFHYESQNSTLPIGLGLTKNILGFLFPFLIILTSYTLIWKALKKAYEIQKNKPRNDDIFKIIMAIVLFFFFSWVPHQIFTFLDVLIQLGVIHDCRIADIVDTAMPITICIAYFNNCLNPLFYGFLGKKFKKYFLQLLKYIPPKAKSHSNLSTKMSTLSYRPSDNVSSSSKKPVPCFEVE
In words: Angiotensin II contracture antagonism through the use of rabbit aortic strip. In kind it is cell-based, rabbit (New Zealand white). Particulars: negative log of antagonist concentration giving dose ratio 2, Schild's equation, 40 min preincubation, read-out: pA2 (converted). The procedure: (1) Angiotens in II contracture antagonism through the use of rabbit aortic strip A male New Zealand white rabbit having a weight of 2 to 3 kg was anesthetized with pentobarbital sodium, and the thoracic aorta was removed. A spiral preparation of the aorta having a width of 1.5 to 2 mm and a length of 15 to 20 mm was prepared therefrom and suspended in a 10-ml Magnus tank containing a Krebs bicarbonate solution (Krebs bicarbonate (mM): NaCl 118.4, KCl 4.7, CaCl2 2.0, MgSO4.7H2O 1.2, NaHCO3.25.0, KH2 PO4 1.2, glucose 11.1). 10^-5 M indomethacine was added thereto to eliminate the influence of prostaglandin. The Krebs solution was maintained at 37° C. and bubbled with 95% O2 -5% CO2. An initial tension of 1 g was applied to the strip, and the strip was allowed to stand for about 1 hr. Then, 50 mM KCl was added thereto to induce contracture. After the contracture was stabilized, the strip was washed. The above procedure was repeated twice, and the second contracture was taken as 100% contracture. Thereafter, angiotensin II was accumulatively added from 10^-10 to 3×10^-6 to prepare a dose-reaction curve. […] The contraction was recorded on a multi-pen recorder (R-10 manufactured by Rika Denki Kogyo Co., Ltd.) through a carrier amplifier (A[…] or A[…] manufactured by Nihon Koden Corp.) by making use of an isometric piezoelectric transducer ([…] manufactured by Nihon Koden Corp.). The potency of the angiotensin II antagonist was determined by calculating negative logarithm (-log) of a concentration of pA2 value [i.e., a concentration of competitive antagonist which makes the dose ratio of the active agent 2] through the use of Schild's equation.

For data set [2], the system named is pressor reaction of angiotensin II. In words: Inhibition of pressor reaction of angiotensin II on anesthetized rat (Wistar Kyoto) having blocked ganglions. It is filed as in vivo. Particulars: iv, 0.05 h, ganglion-blocked Wistar Kyoto rat, i.v., 3 min after administration, read-out: Dose necessary for shifting about doubled shift of pressor reaction of angiotensin toward right (ED50). The procedure: (2) Inhibition of pressor reaction of angiotensin II on anesthetized rat (Wistar Kyoto) having blocked ganglions
A 9 to 25 week-old Wistar Kyoto male rat (Charles River Japan) was anesthetized with 50 mg/kg pentobarbital sodium intraperitoneally, and the carotid and jugular were cannulated. The carotid cannula was connected to a piezoelectric transducer (TP-200T), and recording was conducted with a polygraph system (RM-6000 manufactured by Nihon Koden Corp.) through a carrier amplifier (AP-601G manufactured by Nihon Koden Corp.) and an average blood pressure measuring panel (Nihon Koden Corp.) utilizing the integration of pulse waves. 10 mg/kg of pentolinium was administered intravenously through the jugular cannula to conduct ganglion blockade. […] Then, 0.1 to 10 mg/kg of the test compound was administered intravenously, and 0.03 to 1 μg/kg of angiotensin II was again administered intravenously 3 min after the administration of the test compound to determine the rate of shift of the dose-pressor reaction curve toward the right. A dose (C, ED50, mg/kg, i.v.) necessary for bringing about doubled shift of the dose-pressor reaction curve toward the right was determined from the dose of the antagonist (A, mg/kg, i.v.) and the above-described rate of shift (B). [formula]

Data set [3] is described as follows: Seven-day repeated oral administration, observation of death in SD rats. It is filed as in vivo. Particulars: 100 mg/kg/day orally for seven days; eight week-old male SD rats; observed until 24 hr after final administration. As to the method: Further, compound Nos. 1, 2, 5 and 6 listed in the above-described Table 1 were suspended in 0.5% MC (methylcellulose), and the suspension was orally administered to an eight week-old male SD (Sprague Dawley) rats (4 rats per group) in a dose of 100 mg/kg/day for seven days. The rats were observed until 24 hr after the final administration.

For `CCCCc1nc2ccccc2n1Cc1ccc(-c2ccccc2-c2nn[nH]n2)cc1` [compound 1], the Kb in data set [1] was 7.76 nM. Moreover, in data set [2], the ED50 was determined as 0.74 mg/kg. For the same compound, in data set [3], the death result is on record as “no death was observed”.

Turning to `CCCc1nc2cccnc2n1Cc1ccc(-c2ccccc2-c2nn[nH]n2)cc1` [compound 2], the Kb in data set [1] was 0.832 nM. In data set [2], the ED50 was found to be 0.15 mg/kg. In addition, the death entry in data set [3] is listed as “no death was observed”.

For the compound `CCCc1nc2cccnc2n1Cc1ccc(-c2cc(Cl)ccc2-c2nnn[nH]2)cc1` [compound 3], the Kb in data set [1] is 1.55 nM. Further, the ED50 in data set [2] was found to be 0.44 mg/kg.

For `CCc1nc2cc(Br)cnc2n1Cc1ccc(-c2ccccc2-c2nnn[nH]2)cc1` [compound 4], in data set [1], the Kb was 10 nM. The ED50 in data set [2] was determined as 1.57 mg/kg.

On to `CCCc1nc2c(C)ccnc2n1Cc1ccc(-c2ccccc2-c2nn[nH]n2)cc1` [compound 5], for which the Kb in data set [1] is 0.0468 nM. Further, the ED50 in data set [2] turned out to be 0.029 mg/kg. The death entry in data set [3] is reported as “no death was observed”.

Regarding `CCc1nc2c(C)ccnc2n1Cc1ccc(-c2ccccc2-c2nnn[nH]2)cc1` [compound 6], the Kb in data set [1] is 0.0912 nM. The ED50 in data set [2] was 0.019 mg/kg. Moreover, the death result in data set [3] is recorded as “no death was observed”.

Consider `Cc1ccnc2c1nc(C1CC1)n2Cc1ccc(-c2ccccc2-c2nnn[nH]2)cc1` [compound 7], for which the Kb in data set [1] was 0.0229 nM. Further, the ED50 in data set [2] was determined as 0.022 mg/kg.

For the compound `CCCCc1nc2cccnc2n1Cc1ccc(-c2cc(OC)ccc2-c2nnn[nH]2)cc1` [compound 8], in data set [1], the Kb was 4.27 nM. The ED50 in data set [2] is 0.71 mg/kg.

Consider `CCCc1ccnc2c1nc(CC)n2Cc1ccc(-c2ccccc2-c2nnn[nH]2)cc1` [compound 9], for which the Kb in data set [1] was 23.4 nM. Besides, the ED50 in data set [2] came out at 1.33 mg/kg.

For the compound `Cc1ccnc2c1nc(C(C)C)n2Cc1ccc(-c2ccccc2-c2nnn[nH]2)cc1` [compound 10], the Kb in data set [1] is 0.661 nM. Further, the ED50 in data set [2] turned out to be 0.42 mg/kg.

Turning to `CCSc1nc2c(C)ccnc2n1Cc1ccc(-c2ccccc2-c2nnn[nH]2)cc1` [compound 11], the Kb in data set [1] is 0.182 nM. For the same compound, in data set [2], the ED50 turned out to be 0.04 mg/kg.

On to `CSc1nc2c(C)ccnc2n1Cc1ccc(-c2ccccc2-c2nnn[nH]2)cc1` [compound 12], for which, in data set [1], the Kb is 0.525 nM. Further, the ED50 in data set [2] worked out at 0.13 mg/kg.

Regarding `CCCc1nc2c(Cl)ccnc2n1Cc1ccc(-c2ccccc2C(=O)O)cc1` [compound 13], the Kb in data set [1] is 8.71 nM. Besides, in data set [2], the ED50 is 0.66 mg/kg.

Regarding `CCc1nc2ccc(Cl)nc2n1Cc1ccc(-c2ccccc2-c2nnn[nH]2)cc1` [compound 14], the Kb in data set [1] was 2.95 nM. Moreover, the ED50 in data set [2] was found to be 0.35 mg/kg.

Regarding `CCCc1nc2c(C)c(Cl)cnc2n1Cc1ccc(-c2ccccc2-c2nnn[nH]2)cc1` [compound 15], the Kb in data set [1] is 1.35 nM. The ED50 in data set [2] was determined as 0.32 mg/kg.

In the case of `CCc1nc2c(C)ccnc2n1Cc1ccc(-c2ccccc2C(=O)O)cc1` [compound 16], the Kb in data set [1] was 3.16 nM. For the same compound, the ED50 in data set [2] turned out to be 0.29 mg/kg.

Consider `CCCc1nc2c(C)ccnc2n1Cc1ccc(-c2ccccc2C(=O)O)cc1` [compound 17], for which the Kb in data set [1] was 3.55 nM. Also, the ED50 in data set [2] was 0.17 mg/kg.

Take `Cc1ccnc2c1nc(C1CC1)n2Cc1ccc(-c2ccccc2C(=O)O)cc1` [compound 18]: the Kb in data set [1] was 2.14 nM. The ED50 in data set [2] worked out at 0.075 mg/kg.

Consider `Cc1ccnc2c1nc(C1CCC1)n2Cc1ccc(-c2ccccc2C(=O)O)cc1` [compound 19], for which the Kb in data set [1] was 4.9 nM. For the same compound, in data set [2], the ED50 amounted to 0.25 mg/kg.

As for `CCSc1nc2c(C)ccnc2n1Cc1ccc(-c2ccccc2C(=O)O)cc1` [compound 20], the Kb in data set [1] was 5.25 nM. Besides, the ED50 in data set [2] is 0.41 mg/kg.

Regarding `CCCc1nc2c(C)ccnc2n1Cc1ccc(-c2cc(Cl)ccc2-c2nnn[nH]2)cc1` [compound 21], the Kb in data set [1] was 0.0115 nM. In addition, the ED50 in data set [2] was determined as 0.071 mg/kg.

`CCCc1nc2c(C)cc(C)nc2n1Cc1ccc(-c2ccccc2-c2nnn[nH]2)cc1` [compound 22]: the Kb in data set [1] is 0.024 nM. The ED50 in data set [2] is 0.04 mg/kg.

Take `CCCc1nc2c(C)cc(C)nc2n1Cc1ccc(-c2ccccc2C(=O)O)cc1` [compound 23]: in data set [1], the Kb is 1.15 nM. In addition, in data set [2], the ED50 was found to be 0.08 mg/kg.

As for `Cc1cc(C)c2nc(C3CC3)n(Cc3ccc(-c4ccccc4-c4nnn[nH]4)cc3)c2n1` [compound 24], the Kb in data set [1] was 0.0138 nM. Further, in data set [2], the ED50 was 0.015 mg/kg.

As to `Cc1cc(C)c2nc(C3CC3)n(Cc3ccc(-c4ccccc4C(=O)O)cc3)c2n1` [compound 25], the Kb in data set [1] was 0.589 nM. For the same compound, the ED50 in data set [2] was 0.021 mg/kg.

As to `CCOc1nc2c(C)ccnc2n1Cc1ccc(-c2ccccc2-c2nnn[nH]2)cc1` [compound 26], the Kb in data set [1] was 0.0263 nM. Moreover, the ED50 in data set [2] stood at 0.0084 mg/kg.

Regarding `CCCOc1nc2c(C)ccnc2n1Cc1ccc(-c2ccccc2-c2nnn[nH]2)cc1` [compound 27], in data set [1], the Kb is 0.372 nM. In addition, the ED50 in data set [2] is 0.034 mg/kg.

With `CC#Cc1nc2c(C)ccnc2n1Cc1ccc(-c2ccccc2-c2nnn[nH]2)cc1` [compound 28], in data set [1], the Kb was 0.891 nM. In data set [2], the ED50 stood at 0.04 mg/kg.

Turning to `Cc1ccnc2c1nc(C1CC1)n2Cc1ccc(-c2cc(Cl)ccc2C(=O)O)cc1` [compound 29], the Kb in data set [1] was 3.39 nM. In data set [2], the ED50 came to 0.06 mg/kg.

Consider `COc1nc2c(C)ccnc2n1Cc1ccc(-c2ccccc2-c2nnn[nH]2)cc1` [compound 30], for which the Kb in data set [1] was 0.132 nM. The ED50 in data set [2] worked out at 0.016 mg/kg.

Take `CCOc1nc2c(C)cc(C)nc2n1Cc1ccc(-c2ccccc2-c2nnn[nH]2)cc1` [compound 31]: the Kb in data set [1] was 0.182 nM. Also, the ED50 in data set [2] is 0.01 mg/kg.

Regarding `CCOc1nc2c(C)cc(C)nc2n1Cc1ccc(-c2ccccc2C(=O)O)cc1` [compound 32], in data set [1], the Kb was 0.575 nM. In data set [2], the ED50 is 0.018 mg/kg.

The values are drawn from US5506238A, “Biphenylmethane derivative and pharmacological use” (Eisai Co., Ltd., priority 1989, dated 1996).
